Reference: patent publication US20130345058A1, “USE OF LIPOCHITO-OLIGOSACCHARIDE COMPOUNDS FOR SAFEGUARDING SEED SAFETY OF TREATED SEEDS” (priority 2011, published 2013)

How the values were obtained:
Type in all cases: in vivo
wheat = test: Germination rate of wheat in combination with insecticides (greenhouse); conditions: thiacloprid 1.00 mg ai/corn, compound A1 1 mg/ha, greenhouse 20° C., 80% humidity, 4 days, solvent control 64
Protocol: (§1) The test was performed under greenhouse conditions. Kernels were treated with different insecticides (ready formulated) or a mixture of compound A1 (1 mg/ha in 1:1, acetonitril/water) with the insecticides. Kernels were planted in soil and grown in the greenhouse at 20° C., 80% humidity, 12 h day/light cycle for 4 days (wheat) and at 10° C., 80% humidity, 12 h day/light cycle for 9 days (maize). Controls are performed in the same conditions in the absence of active ingredients. Assessment consisted of counting seedlings per treatment.

Wheat kernels = test: Germination rate of wheat in combination with fungicides (greenhouse); conditions: fungicides 25 g/dt in NMP, compound A1 0.1 mg/ha, soil, greenhouse 15° C., 70% humidity, 7 days, solvent control 69
Protocol: The test is performed under greenhouse conditions.
Wheat kernels were treated with different fungicides (25 g/dt in NMP) or a mixture of compound A1 (0.1 mg/ha in 1:1, acetonitril/water) with the fungicides. Kernels were planted in soil and grown in the greenhouse at 15° C., 70% humidity, 14 h day/light cycle for 7 days.
Controls are performed in the same conditions in the absence of active ingredients. Assessment consisted of counting seedlings per treatment.

maize = test: Germination rate of maize in combination with insecticides (greenhouse); conditions: clothianidin 1.25, imidacloprid 0.75 mg ai/corn, compound A1 1 mg/ha, greenhouse 10° C., 80% humidity, 9 days, solvent control 17
Protocol: as §1

Compound	% germination (Wheat kernels) [%]	further results
N#C/N=C1\SCCN1Cc1ccc(Cl)nc1 [thiacloprid]		germination % wheat 4 d (wheat): 9%
N#Cc1c[nH]cc1-c1cccc2c1OC(F)(F)O2 [fludioxonil]	23	
CN/C(=N\[N+](=O)[O-])NCc1cnc(Cl)s1 [clothianidin]		germination % maize 9 d (maize): 8%
CC(C)(C)C(O)(CCc1ccc(Cl)cc1)Cn1cncn1 (stereo not drawn) [tebuconazole]	21	
Cc1nn(C)c(F)c1C(=O)Nc1ccccc1C(C)CC(C)C (stereo not drawn) [Penflufen]	47	
CO/N=C(/C1=NOCCO1)c1ccccc1Oc1ncnc(Oc2ccccc2Cl)c1F [fluoxastrobin]	4	
